Legend:
[1] = target: T1, human recombinant adrenergic α2B receptor (Homo sapiens, UniProt P18089); experiment: Radioligand binding, adrenergic α2B ([3H]Rauwolscine); conditions: compound at 0.03 μM, [3H]Rauwolscine, repeat assays, each datapoint shown; for Percentage inhibition of ligand binding, Adrenergic α2B: 0.03 µM; for inhibition at 0.03 µM: read-out: Percentage inhibition of ligand binding, Adrenergic α2B
T1 construct: expressed in transfected cells; host or cells: CHO-K1
T1 sequence (P18089 1-450): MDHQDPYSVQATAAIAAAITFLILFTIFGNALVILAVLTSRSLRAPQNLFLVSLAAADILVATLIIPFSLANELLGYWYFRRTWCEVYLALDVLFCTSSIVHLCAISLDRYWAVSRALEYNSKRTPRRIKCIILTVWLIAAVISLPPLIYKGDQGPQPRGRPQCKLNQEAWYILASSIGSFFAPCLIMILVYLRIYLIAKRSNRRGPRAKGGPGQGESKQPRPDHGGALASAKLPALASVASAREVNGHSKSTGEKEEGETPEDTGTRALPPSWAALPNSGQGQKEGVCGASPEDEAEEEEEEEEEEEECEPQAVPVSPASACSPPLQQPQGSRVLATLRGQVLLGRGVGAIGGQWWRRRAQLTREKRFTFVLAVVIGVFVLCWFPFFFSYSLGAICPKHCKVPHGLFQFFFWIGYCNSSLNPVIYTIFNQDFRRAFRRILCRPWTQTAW
How it was run: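 Assay used CHO-K1-expressed human α2B receptor in Tris-HCl pH 7.4 buffer with MgCl2, EDTA and BSA; 60 min incubation at 25 °C.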

[2] = target: T2, human recombinant adrenergic α2A receptor (Homo sapiens, UniProt P08913); experiment: Radioligand binding, adrenergic α2A ([3H]MK-912); conditions: compound at 0.1 μM, [3H]MK-912, repeat assays, each datapoint shown; for Percentage inhibition of ligand binding, Adrenergic α2A: 0.1 µM; for inhibition at 0.1 µM: read-out: Percentage inhibition of ligand binding, Adrenergic α2A
T2 construct: expressed in transfected cells; host or cells: insect Sf9 cells
T2 sequence (P08913 1-465): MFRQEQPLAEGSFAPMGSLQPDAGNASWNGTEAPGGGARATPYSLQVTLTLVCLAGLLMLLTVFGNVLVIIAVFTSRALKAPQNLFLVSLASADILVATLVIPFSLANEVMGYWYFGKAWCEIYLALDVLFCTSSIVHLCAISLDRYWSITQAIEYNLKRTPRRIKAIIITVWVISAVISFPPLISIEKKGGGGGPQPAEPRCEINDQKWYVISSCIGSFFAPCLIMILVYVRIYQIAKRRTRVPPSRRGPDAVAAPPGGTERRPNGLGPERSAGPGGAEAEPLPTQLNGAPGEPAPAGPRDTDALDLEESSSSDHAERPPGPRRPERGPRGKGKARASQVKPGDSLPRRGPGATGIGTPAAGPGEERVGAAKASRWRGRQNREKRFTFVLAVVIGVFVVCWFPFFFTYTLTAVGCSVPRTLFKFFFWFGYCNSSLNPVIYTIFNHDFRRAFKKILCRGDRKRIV
How it was run: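 Sf9 membranes, 1 nM [3H]MK-912, 60 min, 25 °C, Tris-HCl pH 7.4/MgCl2/EDTA buffer. NSB: 10 μM WB-4101. Filtration, counting; % inhibition of specific binding.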

[3] = target: T3, rat adrenergic α1B receptor (Rattus norvegicus, UniProt P15823); experiment: Radioligand binding, adrenergic α1B ([3H]Prazosin); conditions: compound at 0.1 μM, [3H]Prazosin, repeat assays, each datapoint shown; for Percentage inhibition of ligand binding, Adrenergic α1B: 0.1 µM; for inhibition at 0.1 µM: read-out: Percentage inhibition of ligand binding, Adrenergic α1B
T3 construct: rat adrenergic α1B receptor obtained from Wistar Rat liver; from tissue; host or cells: Wistar rat liver
T3 sequence (P15823 1-515): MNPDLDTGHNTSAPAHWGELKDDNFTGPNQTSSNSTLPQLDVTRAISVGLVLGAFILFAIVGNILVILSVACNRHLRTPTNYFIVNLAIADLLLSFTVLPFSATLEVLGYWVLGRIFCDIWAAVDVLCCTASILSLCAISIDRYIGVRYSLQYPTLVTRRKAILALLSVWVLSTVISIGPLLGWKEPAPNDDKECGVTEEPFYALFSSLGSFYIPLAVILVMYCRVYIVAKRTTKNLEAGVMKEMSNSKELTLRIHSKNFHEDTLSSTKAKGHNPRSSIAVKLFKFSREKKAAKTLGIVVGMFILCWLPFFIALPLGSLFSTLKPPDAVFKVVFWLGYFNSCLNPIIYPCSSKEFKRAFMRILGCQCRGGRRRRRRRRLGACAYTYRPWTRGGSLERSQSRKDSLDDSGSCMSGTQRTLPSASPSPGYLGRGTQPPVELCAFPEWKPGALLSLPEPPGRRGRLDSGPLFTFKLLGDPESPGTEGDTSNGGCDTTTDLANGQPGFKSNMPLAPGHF
How it was run: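 Specific binding, taken as total minus that remaining with 10 μM phentolamine, is measured after filtration and counting. Rat liver receptor preparation and 0.25 nM [3H]prazosin are incubated with compound in 50 mM Tris-HCl (pH 7.4, 0.5 mM EDTA) at 25° C for 60 min. Activity is reported as percent inhibition.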

Row | SMILES | Percentage inhibition of ligand binding, Adrenergic α2B [1] | Percentage inhibition of ligand binding, Adrenergic α2A [2] | Percentage inhibition of ligand binding, Adrenergic α1B [3] | inhibition at 0.1 µM [3] | inhibition at 0.1 µM [2] | inhibition at 0.03 µM [1]
1 | Cc1ccc2c(c1)c1c(n2CC(O)c2cccnc2)CN(C)CC1 (single isomer, unassigned) [43a, 2-(2,6-dimethyl-1,2,3,4-tetrahydro-β-carbolin-9-yl)-1-pyridin-3-yl-ethanol] | 51% | 9% | 33% | – | – | –
2 | Cc1ccc2c(c1)c1c(n2CC(O)c2cccnc2)CN(C)CC1 (single isomer, unassigned) [43b, 2-(2,6-dimethyl-1,2,3,4-tetrahydro-β-carbolin-9-yl)-1-pyridin-3-yl-ethanol] | 27% | 13% | 46% | – | – | –
3 | COc1cccc2c3c(n(CC(O)c4ccncc4)c12)CCN(C)C3 (single isomer, unassigned) [44a, 2-(6-methoxy-2-methyl-3,4-dihydro-1H-pyrido[4,3-b]indol-5(2H)-yl)-1-(pyridin-4-yl)ethanol] | 33% | 11% | 12% | – | – | –
4 | COc1cccc2c3c(n(CC(O)c4ccncc4)c12)CCN(C)C3 (single isomer, unassigned) [44b, 2-(6-methoxy-2-methyl-3,4-dihydro-1H-pyrido[4,3-b]indol-5(2H)-yl)-1-(pyridin-4-yl)ethanol] | 75% | 1% | 18% | – | – | –
5 | CN1CCc2c(c3cccc(Cl)c3n2CC(O)c2ccncc2)C1 (single isomer, unassigned) [45a] | 54% | −4% | – | 23% | – | –
6 | CN1CCc2c(c3cccc(Cl)c3n2CC(O)c2ccncc2)C1 (single isomer, unassigned) [45b] | 96% | 16% | 24% | – | – | –
7 | Cc1ccc2c(c1)c1c(n2CC(O)c2ccncc2)CCN2CCCCC12 (single isomer, unassigned) [47a] | 40% | 10% | 58% | – | – | –
8 | Cc1ccc2c(c1)c1c(n2CC(O)c2ccncc2)CCN2CCCCC12 (single isomer, unassigned) [47b] | 119% | 41% | 70% | – | – | –
9 | Cc1ccc2c(c1)c1c(n2CC(O)c2ccncc2)CCN2CCCCC12 (single isomer, unassigned) [47c] | 53% | 4% | 6% | – | – | –
10 | Cc1ccc2c(c1)c1c(n2CC(O)c2ccncc2)CCN2CCCCC12 (single isomer, unassigned) [47d] | 30% | −3% | 5% | – | – | –

Next, values leading:

Row | Percentage inhibition of ligand binding, Adrenergic α2B [1] | Percentage inhibition of ligand binding, Adrenergic α2A [2] | Percentage inhibition of ligand binding, Adrenergic α1B [3] | inhibition at 0.1 µM [3] | inhibition at 0.1 µM [2] | inhibition at 0.03 µM [1] | SMILES
11 | 58% | – | – | 16% | 12% | – | CN1CCc2c(c3cccc(Br)c3n2CC(O)c2ccncc2)C1 (single isomer, unassigned) [48a]
12 | 86% | 17% | 14% | – | – | – | CN1CCc2c(c3cccc(Br)c3n2CC(O)c2ccncc2)C1 (single isomer, unassigned) [48b]
13 | – | 1% | – | 4% | – | 18% | CC(=O)c1ccc2c(c1)c1c(n2CC(O)c2ccncc2)CCN(C)C1 (single isomer, unassigned) [49a, 1-(2,3,4,5-tetrahydro-5-(2-hydroxy-2-(pyridin-4-yl)ethyl)-2-methyl-1H-pyrido[4,3-b]indol-8-yl)ethanone]
14 | 19% | 6% | 5% | – | – | – | CC(=O)c1ccc2c(c1)c1c(n2CC(O)c2ccncc2)CCN(C)C1 (single isomer, unassigned) [49b, 1-(2,3,4,5-tetrahydro-5-(2-hydroxy-2-(pyridin-4-yl)ethyl)-2-methyl-1H-pyrido[4,3-b]indol-8-yl)ethanone]
15 | 21% | 11% | 8% | – | – | – | COc1ccc(C(O)Cn2c3c(c4cc(C)ccc42)CN(C)CC3)cn1 (single isomer, unassigned) [51a, 2-(2,8-dimethyl-1,2,3,4-tetrahydro-pyrido[4,3-b]indol-5-yl)-1-(6-methoxy-pyridin-3-yl)-ethanol]
16 | 90% | 26% | 36% | – | – | – | COc1ccc(C(O)Cn2c3c(c4cc(C)ccc42)CN(C)CC3)cn1 (single isomer, unassigned) [51b, 2-(2,8-dimethyl-1,2,3,4-tetrahydro-pyrido[4,3-b]indol-5-yl)-1-(6-methoxy-pyridin-3-yl)-ethanol]
17 | 37% | – | – | 12% | 10% | – | CN1CCc2c(c3ccc(Cl)cc3n2CC(O)c2ccncc2)C1 (single isomer, unassigned) [53a, 2-(7-chloro-2-methyl-3,4-dihydro-1H-pyrido[4,3-b]indol-5(2H)-yl)-1-(pyridin-4-yl)ethanol]
18 | 85% | 12% | 14% | – | – | – | CN1CCc2c(c3ccc(Cl)cc3n2CC(O)c2ccncc2)C1 (single isomer, unassigned) [53b, 2-(7-chloro-2-methyl-3,4-dihydro-1H-pyrido[4,3-b]indol-5(2H)-yl)-1-(pyridin-4-yl)ethanol]
19 | – | 30% | 39% | – | – | 105% | Cc1ccc2c(c1)c1c(n2CC(OC(=O)C(C)C)c2ccncc2)CCN(C)C1 (single isomer, unassigned) [54a, 2-(1,2,3,4-tetrahydro-2,8-dimethylpyrido[4,3-b]indol-5-yl)-1-(pyridin-4-yl)ethyl isobutyrate]
20 | 106% | 66% | 71% | – | – | – | Cc1ccc2c(c1)c1c(n2CC(OC(=O)C(C)C)c2ccncc2)CCN(C)C1 (single isomer, unassigned) [54b, 2-(1,2,3,4-tetrahydro-2,8-dimethylpyrido[4,3-b]indol-5-yl)-1-(pyridin-4-yl)ethyl isobutyrate]

From patent publication US8791132B2, “Compounds and methods for treatment of hypertension” (Medivation Technologies, Inc., priority 2011, dated 2014)
